From article PMC12155096 (International Journal of Molecular Sciences, 2025)
Counter-ions that a name gives are not always drawn. Like-named read-outs stand apart in the source and are kept apart here.

Legend:
human CYP1A2 [1] = biological target: T1, human CYP1A2 (Homo sapiens, UniProt P05177); test: biochemical
T1 sequence (P05177 1-516): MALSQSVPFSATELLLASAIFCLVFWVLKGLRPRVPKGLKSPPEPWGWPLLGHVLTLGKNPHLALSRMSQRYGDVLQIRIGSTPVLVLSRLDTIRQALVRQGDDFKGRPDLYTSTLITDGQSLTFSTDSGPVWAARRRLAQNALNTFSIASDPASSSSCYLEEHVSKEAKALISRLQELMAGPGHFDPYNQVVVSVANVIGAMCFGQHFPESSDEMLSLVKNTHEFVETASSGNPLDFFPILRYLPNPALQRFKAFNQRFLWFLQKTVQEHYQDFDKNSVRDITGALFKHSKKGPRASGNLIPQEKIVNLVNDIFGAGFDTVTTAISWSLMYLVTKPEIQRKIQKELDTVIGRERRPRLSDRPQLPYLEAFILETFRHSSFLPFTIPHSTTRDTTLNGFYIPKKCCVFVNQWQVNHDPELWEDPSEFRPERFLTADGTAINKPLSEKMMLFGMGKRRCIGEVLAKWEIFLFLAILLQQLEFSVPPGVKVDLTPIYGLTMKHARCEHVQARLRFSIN

human CYP2D6 = human CYP2D6 (Homo sapiens, UniProt P10635); test: biochemical
Sequence of human CYP2D6 (P10635 whole entry): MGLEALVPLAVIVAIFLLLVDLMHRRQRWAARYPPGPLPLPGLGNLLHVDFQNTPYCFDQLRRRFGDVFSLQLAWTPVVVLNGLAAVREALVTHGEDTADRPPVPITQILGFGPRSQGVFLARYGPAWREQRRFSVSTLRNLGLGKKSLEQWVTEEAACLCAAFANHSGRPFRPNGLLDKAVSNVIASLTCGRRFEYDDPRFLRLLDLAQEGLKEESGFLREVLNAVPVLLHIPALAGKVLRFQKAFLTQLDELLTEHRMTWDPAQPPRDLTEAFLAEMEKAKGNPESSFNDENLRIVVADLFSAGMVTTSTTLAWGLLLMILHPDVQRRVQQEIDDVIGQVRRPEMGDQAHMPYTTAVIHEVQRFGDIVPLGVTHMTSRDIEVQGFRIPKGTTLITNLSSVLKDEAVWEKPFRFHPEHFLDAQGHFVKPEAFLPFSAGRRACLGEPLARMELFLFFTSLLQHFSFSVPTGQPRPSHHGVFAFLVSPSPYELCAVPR

CYP3A4 = CYP3A4 (Homo sapiens, UniProt P08684); test: biochemical
Sequence of CYP3A4 (P08684 whole entry): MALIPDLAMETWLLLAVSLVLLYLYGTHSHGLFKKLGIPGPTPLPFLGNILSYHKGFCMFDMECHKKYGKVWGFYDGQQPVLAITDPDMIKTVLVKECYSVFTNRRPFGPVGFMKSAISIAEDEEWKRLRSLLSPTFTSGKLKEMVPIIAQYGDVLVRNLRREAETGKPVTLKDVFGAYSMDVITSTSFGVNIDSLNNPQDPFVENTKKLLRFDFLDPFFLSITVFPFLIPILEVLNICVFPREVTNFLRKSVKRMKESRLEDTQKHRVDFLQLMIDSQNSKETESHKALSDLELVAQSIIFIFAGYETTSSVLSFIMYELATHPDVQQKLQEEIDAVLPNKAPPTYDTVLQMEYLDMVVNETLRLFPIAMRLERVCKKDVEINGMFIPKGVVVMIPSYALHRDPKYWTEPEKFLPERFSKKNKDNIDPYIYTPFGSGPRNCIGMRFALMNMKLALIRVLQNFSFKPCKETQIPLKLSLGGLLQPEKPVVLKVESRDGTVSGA

human CYP2C19 [2] = biological target: T2, human CYP2C19 (Homo sapiens, UniProt P33261); test: biochemical
T2 sequence (P33261 whole entry): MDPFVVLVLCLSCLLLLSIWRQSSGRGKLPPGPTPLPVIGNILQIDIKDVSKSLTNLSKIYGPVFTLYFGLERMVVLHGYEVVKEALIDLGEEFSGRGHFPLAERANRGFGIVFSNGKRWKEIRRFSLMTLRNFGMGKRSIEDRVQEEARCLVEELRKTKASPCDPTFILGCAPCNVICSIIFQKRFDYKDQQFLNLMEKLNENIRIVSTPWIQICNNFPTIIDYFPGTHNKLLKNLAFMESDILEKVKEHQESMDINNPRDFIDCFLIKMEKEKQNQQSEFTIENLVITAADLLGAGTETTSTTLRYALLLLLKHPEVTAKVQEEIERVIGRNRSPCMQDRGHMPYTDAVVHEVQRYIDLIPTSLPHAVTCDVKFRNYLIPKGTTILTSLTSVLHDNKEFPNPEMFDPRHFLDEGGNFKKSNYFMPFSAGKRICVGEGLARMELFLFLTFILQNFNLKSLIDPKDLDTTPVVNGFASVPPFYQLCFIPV

human CYP2C9 [3] = biological target: T3, human CYP2C9 (Homo sapiens, UniProt P11712); test: biochemical
T3 sequence (P11712 whole entry): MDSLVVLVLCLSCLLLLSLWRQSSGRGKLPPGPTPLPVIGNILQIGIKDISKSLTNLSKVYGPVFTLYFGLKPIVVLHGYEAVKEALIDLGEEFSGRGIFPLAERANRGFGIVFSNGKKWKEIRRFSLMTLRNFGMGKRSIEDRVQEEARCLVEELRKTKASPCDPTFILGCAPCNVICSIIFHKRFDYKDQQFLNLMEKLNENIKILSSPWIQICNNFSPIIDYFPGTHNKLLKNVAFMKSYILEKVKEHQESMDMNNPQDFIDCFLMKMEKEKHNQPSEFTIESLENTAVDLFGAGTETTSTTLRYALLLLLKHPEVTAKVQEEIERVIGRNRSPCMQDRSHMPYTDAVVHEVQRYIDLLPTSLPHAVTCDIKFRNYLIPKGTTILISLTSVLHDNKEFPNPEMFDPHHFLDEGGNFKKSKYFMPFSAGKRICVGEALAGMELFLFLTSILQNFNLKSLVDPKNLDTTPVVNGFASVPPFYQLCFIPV

human CYP1A2 [4] = biological target: T1, human CYP1A2
human CYP2C19 [5] = biological target: T2, human CYP2C19
human CYP2C9 [6] = biological target: T3, human CYP2C9
[7] = CYP1A2 AC50 (half-maximal activity concentration)
[8] = CYP2D6 AC50 (half-maximal activity concentration)
[9] = CYP3A4 AC50 (half-maximal activity concentration)
[10] = CYP2C19 AC50 (half-maximal activity concentration)
[11] = CYP2C9 AC50 (half-maximal activity concentration)

Row | SMILES | AC50 (human CYP1A2 [1]; [7]) | AC50 (human CYP2D6; [8]) | AC50 (CYP3A4; [9]) | AC50 (human CYP2C19 [2]; [10]) | AC50 (human CYP2C9 [3]; [11]) | CYP1A2 AC50 (half-maximal activity concentration) (human CYP1A2 [4]) | further results
1 | O=C(C(=O)c1ccccc1)c1ccccc1 [1,2-Diphenylethanedione] | 12.1 µM | 29.4 µM | 35.4 µM | 14.8 µM | 1.13 µM | – | –
2 | O=C(Cl)c1cccc(C(=O)Cl)c1 [1,3-Benzenedicarbonyl dichloride] | – | 24.9 µM | 26.8 µM | – | 68.7 µM | Inactive | CYP2C19 AC50 (half-maximal activity concentration) (human CYP2C19 [5]): Inactive
3 | ClC(Cl)(Cl)c1ccc(C(Cl)(Cl)Cl)cc1 [1,4-Bis(trichloromethyl)benzene] | 5.66 µM | 58.6 µM | 45.9 µM | – | 34.2 µM | – | CYP2C19 AC50 (half-maximal activity concentration) (human CYP2C19 [5]): Inconclusive inhibitor
4 | Oc1c(Br)cc(Br)cc1Br [2,4,6-Tribromophenol] | 51.7 µM | 68.4 µM | 72.8 µM | – | 38.5 µM | – | CYP2C19 AC50 (half-maximal activity concentration) (human CYP2C19 [5]): Inconclusive inhibitor
5 | Oc1c(I)cc(I)cc1I [2,4,6-Triiodophenol] | 37.2 µM | 80.7 µM | 63.5 µM | 61.9 µM | 41.2 µM | – | –
6 | O=C(O)c1cc(Cl)cc(Cl)c1 [3,5-Dichlorobenzoic acid] | 57.8 µM | 27.8 µM | 55.5 µM | – | 58.9 µM | – | CYP2C19 AC50 (half-maximal activity concentration) (human CYP2C19 [5]): Inconclusive inhibitor
7 | Cc1ccc(C(=O)c2ccccc2)cc1 [4-Methylbenzophenone] | 34.3 µM | 46.2 µM | 16 µM | 13.3 µM | 34.3 µM | – | –
8 | O=C(CCCN1CCN(c2ccccn2)CC1)c1ccc(F)cc1 [Azaperone] | – | 12.4 µM | 5.97 µM | 32.7 µM | 5.25 µM | Inactive | –
9 | O=C(c1ccccc1)C(O)c1ccccc1 (stereo not shown) [Benzoin] | 22.6 µM | 36.7 µM | 22.8 µM | 15.8 µM | 2.27 µM | – | –
10 | c1ccc(CSCc2ccccc2)cc1 [Benzyl sulfide] | 27.3 µM | 61.9 µM | 7.5 µM | 5.94 µM | 29.8 µM | – | –
11 | O=c1[nH]c2ccc([S+]([O-])CCN3CCC(Cc4ccc(F)cc4)CC3)cc2o1 (stereo not shown) [Besonprodil] | – | 33 µM | 21.5 µM | 50.9 µM | 6.44 µM | Inactive | –
12 | COC(=O)c1cc(Oc2ccc(Cl)cc2Cl)ccc1[N+](=O)[O-] [Bifenox] | 20.4 µM | 25.3 µM | 5.23 µM | 2.45 µM | 7.1 µM | – | –
13 | CCCCC(CC)COP(=O)(O)OCC(CC)CCCC (stereo not shown) [Bis(2-ethylhexyl) phosphate] | 82.9 µM | 56.6 µM | 37.6 µM | 40.6 µM | 16.5 µM | – | –
14 | O=C1C=CC(=O)N1c1ccc(Cc2ccc(N3C(=O)C=CC3=O)cc2)cc1 [Bismaleimide] | 23.9 µM | 43.6 µM | 56.6 µM | 8.29 µM | 4.93 µM | – | –
15 | CCCCCCCC(=O)Oc1c(Br)cc(C#N)cc1Br [Bromoxynil octanoate] | 15 µM | 85.8 µM | 15.4 µM | 32.5 µM | 34.5 µM | – | –
16 | C#CC(C)N(C)C(=O)Nc1ccc(Cl)cc1 (stereo not shown) [Buturon] | 5.47 µM | 55.3 µM | 9.33 µM | 8.68 µM | 22.8 µM | – | –
17 | CC1(C)C(C=C(Cl)Cl)C1C(=O)OC(C#N)c1ccc(F)c(Oc2ccccc2)c1 (stereo not shown) [Cyfluthrin] | – | 22.2 µM | 4.01 µM | 10.4 µM | 3.92 µM | Inactive | –
18 | CCOP(=O)(Sc1ccccc1)Sc1ccccc1 [Edifenphos] | 13 µM | 42.7 µM | 8.65 µM | 8.61 µM | 29.7 µM | – | –
19 | CCOc1ccc(C(C)(C)COCc2cccc(Oc3ccccc3)c2)cc1 [Etofenprox] | – | 34.3 µM | 35.7 µM | 16.4 µM | 7.13 µM | Inconclusive inhibitor | –

Row | SMILES | AC50 (human CYP1A2 [1]; [7]) | AC50 (human CYP2D6; [8]) | AC50 (CYP3A4; [9]) | AC50 (human CYP2C19 [2]; [10]) | AC50 (human CYP2C9 [3]; [11]) | CYP1A2 AC50 (half-maximal activity concentration) (human CYP1A2 [4]) | further results
20 | CCOC(=O)c1nc(C(Cl)(Cl)Cl)n(-c2ccc(Cl)cc2Cl)n1 [Fenchlorazole-ethyl] | – | 13.1 µM | 3.26 µM | 7.02 µM | 3.92 µM | Inactive | –
21 | CCOC(=O)[C@@H](C)Oc1ccc(Oc2nc3ccc(Cl)cc3o2)cc1 [Fenoxaprop-P-ethyl] | 23.8 µM | 47.5 µM | 47.6 µM | 62.1 µM | 55 µM | – | –
22 | CC(C)C(O)(c1ccc(OC(F)(F)F)cc1)c1cncnc1 (stereo not shown) [Flurprimidol] | – | – | – | – | – | – | IC50 (human CYP1A2 [1]; CYP1A2 IC50 (half-maximal inhibitory concentration)): 63.3 µM; IC50 (human CYP2D6; CYP2D6 IC50 (half-maximal inhibitory concentration)): 10.3 µM; IC50 (CYP3A4; CYP3A4 IC50 (half-maximal inhibitory concentration)): 0.54 µM; IC50 (human CYP2C19 [2]; CYP2C19 IC50 (half-maximal inhibitory concentration)): 2.67 µM
23 | COC(=O)C(C)Oc1ccc(Oc2ncc(C(F)(F)F)cc2Cl)cc1 (stereo not shown) [Haloxyfop-methyl] | – | – | – | – | – | – | AC50 (human CYP1A2 [1]): 46.8 µM; AC50 (human CYP2D6): 46.8 µM; AC50 (CYP3A4): 27.8 µM; AC50 (human CYP2C19 [2]): 50.9 µM; AC50 (human CYP2C9 [3]): 5.74 µM
24 | O=C(NC1CCN(CCc2c[nH]c3ccccc23)CC1)c1ccccc1 [Indoramin hydrochloride] | – | 4.31 µM | 15.6 µM | – | – | Inactive | CYP2C19 AC50 (half-maximal activity concentration) (human CYP2C19 [5]): Inactive; CYP2C9 AC50 (half-maximal activity concentration) (human CYP2C9 [6]): Inactive
25 | Cc1cccc(C)c1NC(=O)CN1CCN(CCCC(c2ccc(F)cc2)c2ccc(F)cc2)CC1 [Lidoflazine] | – | 5.18 µM | 2.26 µM | 36.7 µM | 21.3 µM | Inactive | –
26 | CC[N+](C)(CC)CCOC(=O)C1c2ccccc2Oc2ccccc21 [Methantheline bromide] | – | 3.29 µM | 15.6 µM | – | – | Inconclusive inhibitor | CYP2C19 AC50 (half-maximal activity concentration) (human CYP2C19 [5]): Inactive; CYP2C9 AC50 (half-maximal activity concentration) (human CYP2C9 [6]): Inactive
27 | COc1ccc(C(=O)c2ccc(C)cc2)c(O)c1 [Mexenone] | 16.1 µM | 56.1 µM | 6.22 µM | 5.89 µM | 14.7 µM | – | –
28 | O=C1NC2CCCCN2C12CCN(CCCN1c3ccccc3CCc3ccc(Cl)cc31)CC2 (stereo not shown) [Mosapramine] | – | 6.53 µM | 6.79 µM | – | – | Inactive | CYP2C19 AC50 (half-maximal activity concentration) (human CYP2C19 [5]): Inconclusive inhibitor; CYP2C9 AC50 (half-maximal activity concentration) (human CYP2C9 [6]): Inconclusive inhibitor
29 | CN(C/C=C/c1ccccc1)Cc1cccc2ccccc12 [Naftifine hydrochloride] | 12.5 µM | 1.06 µM | 12.4 µM | 5.52 µM | 12.5 µM | – | –
30 | OC1(c2ccc(Cl)c(C(F)(F)F)c2)CCN(CCCC(c2ccc(F)cc2)c2ccc(F)cc2)CC1 [Penfluridol] | – | – | – | – | – | – | AC50 (human CYP1A2 [1]): 29.9 ± 4.12 µM; AC50 (human CYP2D6): 5.85 ± 1.65 µM; AC50 (CYP3A4): 2.39 ± 0.41 µM; AC50 (human CYP2C19 [2]): 16.6 ± 4.88 µM; AC50 (human CYP2C9 [3]): 10.3 ± 1.85 µM
31 | CC1(C)C(C=C(Cl)Cl)C1C(=O)OCc1cccc(Oc2ccccc2)c1 (stereo not shown) [Permethrin] | – | 27.5 µM | 10.9 µM | 5.91 µM | 11.2 µM | – | –
32 | CN1CCC(=C2c3ccccc3Sc3ccccc32)CC1 [Pimethixene maleate] | – | 3.22 µM | 16.1 µM | 21.7 µM | – | Inactive | CYP2C9 AC50 (half-maximal activity concentration) (human CYP2C9 [6]): Inactive
33 | CCCSP(=O)(OCC)Oc1ccc(Br)cc1Cl (stereo not shown) [Profenofos] | 4.52 µM | 13.8 µM | 3.25 µM | 4.22 µM | 9.76 µM | – | –
34 | CC(=O)[C@H]1CC[C@H]2[C@@H]3CCC4=CC(=O)CC[C@]4(C)[C@H]3CC[C@]12C [Progesterone] | 29.9 µM | 47.7 µM | 2.35 µM | 4.06 µM | 26.5 µM | – | –
35 | CCOC(=O)C(C)Oc1ccc(Oc2cnc3cc(Cl)ccc3n2)cc1 (stereo not shown) [Quizalofop-ethyl] | 36.3 µM | 42.5 µM | 12.3 µM | 36.2 µM | 17.4 µM | – | –
36 | Oc1c(Cl)c(Cl)c(Cl)c(Cl)c1Cl [Sodium pentachlorophenate] | 73.9 µM | 2.15 µM | 71 µM | – | – | – | CYP2C19 AC50 (half-maximal activity concentration) (human CYP2C19 [5]): Inactive
37 | COP(=O)(OC)OC(=CCl)c1cc(Cl)c(Cl)cc1Cl [Tetrachlorovinphos] | 3 µM | 33.7 µM | 3.72 µM | 6.81 µM | 29 µM | – | –
38 | c1ccc(P(c2ccccc2)c2ccccc2)cc1 [Triphenylphosphine] | – | 35.7 µM | 36.2 µM | 8.69 µM | 7.13 µM | Inactive | –
